Data as given in publication PMC4871512, “Drug-Based Lead Discovery: The Novel Ablative Antiretroviral Profile of Deferiprone in HIV-1-Infected Cells and in HIV-Infected Treatment-Naive Subjects of a Double-Blind, Placebo-Controlled, Randomized Exploratory Trial” (PLoS ONE, 2016).

Key:
[1] = system: HIV-1 clinical isolate in PBMCs; experiment: p24 core antigen ELISA in supernatant of isolate-infected, long-term replenished primary cell cultures; format: cell-based; conditions: for p24, level relative to untreated controls: after two weeks, stably infected replenished primary cell cultures
Procedure: Cell-free supernatants were used for p24 and HIV-1 RNA measurements. p24 core antigen in the supernatant was quantified by ELISA (Retrotek HIV-1 p24®; ZeptoMetrix Corp.; Buffalo, NY). HIV-1 RNA copy number in the supernatant of PBMC cultures and in plasma of trial subjects enrolled in the exploratory deferiprone trial was determined with a PCR-based and FDA-approved assay (Amplicor HIV-1 Monitor®; Roche Diagnostics Corp.; Indianapolis, IN). For clinical samples, the assay was used per the Standard Specimen Processing Procedure (sensitivity limit 400 copies/ml); for cell culture samples, the assay was used in both the Standard Specimen Processing and the UltraSensitive Specimen Processing Procedure (sensitivity limit 50 copies/ml). If not specified further, the term “log10” designates the amount of HIV-1 RNA in the dimensions [log10 / ml]. The Roche Amplicor HIV-1 DNA Test (Roche Diagnostics Corp.; Indianapolis, IN) was used for detection of HIV-1 DNA with the primer pair SK431/462, which amplifies a highly conserved region of the gag genome of HIV-1 subtype B DNA. Results are shown per the assay’s optical readings of a chromogenic reaction that relates absorbance at 450 nm to the HIV-1 DNA copy number and is calibrated by assay-internal copy controls (A450 < 0.350, HIV-1 DNA absent; A450 ≥ 3.0, HIV-1 DNA present in excess of 20 copies; A450 between 0.350 and 3.0, HIV-1 DNA copy number per copy controls). Apoptotic DNA fragmentation was quantified flow-cytometrically, using a terminal deoxynucleotide transferase dUTP nick end-labeling (TUNEL) assay (APO-BRDU™; Phoenix Flow Systems; San Diego, CA). All experiments and assays were performed at least in duplicate.
The antiretroviral activity of deferiprone was tested in primary cultures of PBMCs, infected in vitro with clinical isolate or mock-infected with clinical isolate-identical cell- and virus-free medium as described. Briefly, to approximate the bi-compartmental mode of HIV-1 infection in vivo, which comprises a cell-generative compartment that provides non-infected but HIV-1 susceptible cells, and an HIV-generative compartment in which they become infected, the cultures were replenished as described with freshly obtained uninfected primary cells and medium at regular intervals, assuring identical cell number in both the treated and control cultures by computerized trypan blue exclusion analysis (Vi-CELL™; Beckman Coulter, Miami, FL); deferiprone concentrations were adjusted as indicated. This model allowed for months-long monitoring of HIV-1 parameters in productively infected cultures.

[2] = system: HIV-infected cell lines and HIV-infected primary cells; conditions: cited from earlier work
[3] = system: HIV-1 DNA; experiment: HIV-1 DNA (Roche Amplicor HIV-1 DNA Test) in isolate-infected primary cell cultures; format: cell-based; conditions: 200 μM deferiprone
Procedure: Cell-free supernatants were used for p24 and HIV-1 RNA measurements. p24 core antigen in the supernatant was quantified by ELISA (Retrotek HIV-1 p24®; ZeptoMetrix Corp.; Buffalo, NY). HIV-1 RNA copy number in the supernatant of PBMC cultures and in plasma of trial subjects enrolled in the exploratory deferiprone trial was determined with a PCR-based and FDA-approved assay (Amplicor HIV-1 Monitor®; Roche Diagnostics Corp.; Indianapolis, IN). For clinical samples, the assay was used per the Standard Specimen Processing Procedure (sensitivity limit 400 copies/ml); for cell culture samples, the assay was used in both the Standard Specimen Processing and the UltraSensitive Specimen Processing Procedure (sensitivity limit 50 copies/ml). If not specified further, the term “log10” designates the amount of HIV-1 RNA in the dimensions [log10 / ml]. […] Results are shown per the assay’s optical readings of a chromogenic reaction that relates absorbance at 450 nm to the HIV-1 DNA copy number and is calibrated by assay-internal copy controls (A450 < 0.350, HIV-1 DNA absent; A450 ≥ 3.0, HIV-1 DNA present in excess of 20 copies; A450 between 0.350 and 3.0, HIV-1 DNA copy number per copy controls). Apoptotic DNA fragmentation was quantified flow-cytometrically, using a terminal deoxynucleotide transferase dUTP nick end-labeling (TUNEL) assay (APO-BRDU™; Phoenix Flow Systems; San Diego, CA). […]

[4] = human, in vivo; cited from earlier work
[5] = system: HIV-infected peripheral blood mononuclear cells; experiment: Apoptotic DNA fragmentation by TUNEL in single-donor non-replenished PBMC cultures; format: cell-based, human; conditions: 200 μM deferiprone
Procedure: Fig 2 Effect of deferiprone in HIV-infected primary cells: Apoptotic DNA fragmentation, deoxyhypusyl-eIF5A accumulation, and DOHH activity. Apoptotic DNA fragmentation (Panel A) was detected by terminal deoxynucleotide transferase dUTP nick end labeling (TUNEL) of single-donor peripheral blood mononuclear cells, maintained in short-term non-replenished cultures as described. Cells were left uninfected and/or untreated; or infected immediately after plating with clinical HIV-1 isolate and 12 hours after infection, treated with 200 μM deferiprone. […] The dose-effect curve for inhibition of cellular DOHH by increasing deferiprone concentrations in short-term non-replenished single-donor cultures (Panel C) was calculated from the accumulation of its ^3H-labeled substrate and the decrease of its ^3H-labeled product; error bars are at the size of the graph symbols and not shown. […]
Cell-free supernatants were used for p24 and HIV-1 RNA measurements. p24 core antigen in the supernatant was quantified by ELISA (Retrotek HIV-1 p24®; ZeptoMetrix Corp.; Buffalo, NY). HIV-1 RNA copy number in the supernatant of PBMC cultures and in plasma of trial subjects enrolled in the exploratory deferiprone trial was determined with a PCR-based and FDA-approved assay (Amplicor HIV-1 Monitor®; Roche Diagnostics Corp.; Indianapolis, IN). […]

## Cc1c(O)c(=O)ccn1C [deferiprone, 3-hydroxy-1,2-dimethylpyridin-4-one]
[1]; 50 μM for 30 days followed by escalation to 200 μM (data not shown)
  p24 after escalation of concentration: complete suppression of p24 within one week
[1]; 100 μM deferiprone
  p24 on-drug: declined to the limit of detectability
  p24, level relative to untreated controls: ≤ 10%
[1]; 200 μM deferiprone
  p24, level relative to untreated controls: ≤ 10%
[1]; after 100 μM deferiprone
  extracellular p24 after deferiprone withdrawal: increased rapidly to levels higher than pre-treatment
[1]; after 200 μM deferiprone
  p24 off-drug: did not rebound off-drug
[1]; below 100 μM deferiprone
  p24 expression: only marginally affected
[2]; 200 μM deferiprone
  HIV-1 inhibition in chronically infected cell lines: near-maximal HIV-1 inhibition
[2]; treated HIV-infected cells
  ribosomal presence of gag mRNA, amount of intra- and extracellular p24, budding of viral particles: suppress
[3]
  decline of HIV-1 DNA: reached the lower limit of detectability
[3]; 10 days off-drug
  final A450 readings of the HIV-1 DNA test: negative for the continued presence of HIV-1 DNA
[4]
  Abdominal pain/discomfort, patients affected: 10.4%
  Alanine aminotransferase increased, patients affected: 7.5%
  Arthralgia, patients affected: 9.8%
  Headache, patients affected: 2.5%
  Nausea, patients affected: 12.6%
  Neutropenia (neutrophils < 1.5 x 10^9/L and > 0.5 x 10^9/L), patients affected: 6.2%
  Vomiting, patients affected: 9.8%
  agranulocytosis (absolute neutrophil count less than 0.5 × 10^9/L), patients affected: 1.7%
[5]; at 120 hours
  DNA fragmentation in infected treated relative to infected untreated cultures: twice
[5]; at 144 hours, P = 0.001
  DNA fragmentation in infected treated relative to infected untreated cultures: three times as high
